In PMC3792051, “Polyenylpyrrole Derivatives Inhibit NLRP3 Inflammasome Activation and Inflammatory Mediator Expression by Reducing Reactive Oxygen Species Production and Mitogen-Activated Protein Kinase Activation” (PLoS ONE, 2013):

Columns and labels:
[1] = tested on: LPS-activated J774A.1 cells; assay: NLRP3 and proIL-1β expression by Western blot; type: cell-based, mouse; details: J774A.1, 1-40 µM 30 min before LPS 6 h
Experimental: Cells were washed twice with ice-cold phosphate-buffered saline (PBS) and lysed on ice for 5 min with lysis buffer (20 mM Tris-HCl, pH 7.5, 150 mM NaCl, 1 mM Na 2EDTA, 1 mM EGTA, 1% Triton X-100, 2.5 mM sodium pyrophosphate, 1 mM beta-glycerophosphate, 1 mM Na 3VO4, 1 µg/ml of leupeptin, 1 mM PMSF, protease inhibitor cocktail). The lysate was then centrifuged at 12,000 x g at 4 °C for 10 min and the pellet discarded. […]
Figure 4 Effect of compound 1h on NLRP3 inflammasome activation in LPS+ATP-activated J774A.1 macrophages. (A) J774A.1 macrophages (1 × 10^6/ml; 1 ml) or (B) peritoneal macrophages (1 × 10^5/ml; 1 ml) were incubated with 10-40 µM compound 1h or DMSO for 30 min, then LPS (1 µg/ml) was added and incubation continued for 5.5 h, then the cells were stimulated with ATP (5 mM) for an additional 30 min, then IL-1β in the culture medium was measured by ELISA (A, upper panel; B) and levels of active caspase-1 (p10) (A, lower panel) measured by Western blotting. […] In (E), J774A.1 macrophages (1 × 10^6/ml; 1 ml) were incubated for 30 min with DMSO or 1-40 µM compound 1h, then LPS (1 µg/ml) was added and incubation continued for 6 h, then expression of NLRP3 and proIL-1β was measured by Western blotting. […]

[2] = tested on: LPS-activated RAW 264.7 macrophages; assay: Intracellular ROS production (DCF fluorescence), LPS-induced; type: cell-based, murine; details: RAW 264.7, 30 min pretreatment; compound 1h 20 µM, NAC 10 mM
Experimental: Intracellular ROS production was measured by detecting the fluorescence intensity of the 2’, 7’-dichlorofluorescein, the oxidation product of 2’, 7’-dichlorofluorescein diacetate (Molecular Probes, Eugene, OR). In one study, RAW 264.7 macrophages (5 × 10^5/ml; 0.1 ml) were incubated with vehicle, compound 1h (20 µM), or NAC (10 mM) for 30 min, then 2’, 7’-dichlorofluorescein diacetate (2 µM) was added for 30 min, then LPS was added for the indicated time. In another, J774A.1 macrophages (5 × 10^5/ml; 0.1 ml) were incubated with LPS (1 µg/ml) for 6 h, then vehicle, compound 1h (20 µM), or DPI (25 µM) was added for 30 min. 2’, 7’-dichlorofluorescein diacetate (2 µM) was then added for 30 min before incubation with ATP (5 mM) for the indicated time; while, in another, the order of addition of compound1h/DPI and LPS was reversed. The fluorescence intensity of 2’, 7’-dichlorofluorescein was detected at an excitation wavelength of 485 nm and an emission wavelength of 530 nm on a microplate absorbance reader (Bio-Rad Laboratories, Inc).
To test whether compound 1h exerted its anti-inflammatory effect on LPS-activated cells by downregulation of ROS production, intracellular ROS production in LPS-activated RAW 264.7 macrophages was measured.
Figure 5 Effect of compound 1h on ROS production and MAPK phosphorylation in LPS-activated macrophages. […]

With `O=c1cc(O)cc(/C=C/C=C/C=C/C=C/c2[nH]ccc2Cl)o1` [compound 1h] as the compound, how does the “LPS-induced proIL-1β expression” value [1] read?
The value was “inhibited LPS-induced proIL-1β expression in a dose-dependent fashion”.

And the NLRP3 protein expression [1]?
Its NLRP3 protein expression is “increased NLRP3 expression”.

What about the “LPS-stimulated ROS production” value [2] of the same compound?
Its value is “reduced LPS-stimulated ROS production”.
